#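 Interpolation was linear, between the two tested concentrations surrounding the appropriate level; five concentrations were tested over 48 hours in 96-well plates. Here, GI50 denotes the concentration required for 50% inhibition of growth. Definition used: TGI = concentration required for complete inhibition of growth.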
# Columns and labels:
# Experiment in all cases: growth of human tumour cells (NCI), 48 h
# [1] = system: HS 578T breast
# [2] = system: SF-268 CNS
# [3] = system: HT29 colon
# [4] = system: T-47D breast
# [5] = system: M14 melanoma
# [6] = system: MALME-3M melanoma
# [7] = system: NCI/ADR-RES ovarian
# [8] = system: NCI-H23 lung
# [9] = system: DU-145 prostate
# [10] = system: HL-60(TB) leukemia
# [11] = system: SW-620 colon
# [12] = system: KM12 colon
# [13] = system: EKVX NSCLC
# [14] = system: SK-MEL-2 melanoma
# [15] = system: MOLT-4 leukemia
# [16] = system: SNB-19 CNS
# [17] = system: BT-549 breast
# [18] = system: COLO 205 colon
# [19] = system: A549 NSCLC
# [20] = system: SK-MEL-5 melanoma
# [21] = system: OVCAR-5 ovarian
# [22] = system: HOP-92 NSCLC
# [23] = system: HCT-116 colon
# [24] = system: SN12C renal
# [25] = system: MDA-MB-231 breast
# [26] = system: CCRF-CEM leukemia
# [27] = system: OVCAR-4 ovarian
# [28] = system: PC-3 prostate
# [29] = system: SF-295 CNS
smiles,measurement,setting,value
NC(=O)n1c(=O)n(-c2cccc(C(F)(F)F)c2)c(=O)c2cc(-c3ccc(F)cc3F)ccc21,TGI,[1],7.06 µM
same,GI50,[2],2.57 µM
same,TGI,[2],13 µM
same,GI50,[3],4.38 µM
same,TGI,[3],18.8 µM
same,GI50,[4],1.61 µM
same,TGI,[4],6.28 µM
same,GI50,[5],1.34 µM
same,TGI,[5],3.8 µM
same,GI50,[6],1.44 µM
same,TGI,[6],5.3 µM
same,GI50,[7],2.06 µM
same,TGI,[7],8.87 µM
same,GI50,[8],1.23 µM
same,TGI,[8],4.63 µM
same,GI50,[9],3.53 µM
same,TGI,[9],15.5 µM
same,GI50,[10],1.27 µM
same,TGI,[10],7.52 µM
same,GI50,[11],2.65 µM
same,TGI,[11],10.4 µM
same,GI50,[12],2.55 µM
same,TGI,[12],7.15 µM
same,GI50,[13],2.83 µM
same,TGI,[13],9.59 µM
same,GI50,[14],0.75 µM
same,TGI,[14],2.82 µM
same,GI50,[15],2.22 µM
same,TGI,[15],6.16 µM
same,GI50,[16],1.51 µM
same,TGI,[16],12.7 µM
same,GI50,[17],0.315 µM
same,TGI,[17],1.12 µM
same,GI50,[18],3.35 µM
same,TGI,[18],10.6 µM
same,GI50,[19],3.19 µM
same,TGI,[19],11.8 µM
same,GI50,[20],0.338 µM
same,TGI,[20],1.21 µM
same,GI50,[21],3.38 µM
same,TGI,[21],14.4 µM
same,GI50,[22],0.149 µM
same,TGI,[22],0.568 µM
same,GI50,[23],0.559 µM
same,TGI,[23],1.98 µM
same,GI50,[24],1.27 µM
same,TGI,[24],7.24 µM
same,GI50,[25],2.12 µM
same,TGI,[25],6.86 µM
same,GI50,[26],3.07 µM
same,TGI,[26],19 µM
same,GI50,[27],2.81 µM
same,TGI,[27],16.5 µM
same,GI50,[28],1.07 µM
same,TGI,[28],5.73 µM
same,GI50,[29],1.68 µM
same,TGI,[29],3.51 µM

# — PubChem BioAssay (NCI)
